How the values were obtained:
[1] = test system: 3T3-L1 adipocytes; assay: Adiponectin secretion promoting effect, Western blotting of culture supernatant; format: cell-based; conditions: for adiponectin secretion promoting effect: in words, no time or concentration stated
Method: (§1) 3T3-L1 adipocytes can be allowed to grow and maintained in a 5% CO2 environment in high-glucose DMEM containing 50 U/ml penicillin, 50 μg/ml streptomycin, and 10% FCS. The 3T3-L1 cells were subcultured in a dish of 3.5 cm in diameter until confluent and then sufficiently differentiated into adipocytes by culture for another 2 days in the presence of insulin (10 μg/ml), dexamethasone ([…]), and IBMX (3-isobutyl-1-methylxanthine) (0.5 mM). Teadenol A (10 μM) or DMSO (vehicle control) was added to the sufficiently differentiated 3T3-L1 adipocytes, and each culture supernatant was collected after 8, 24, 32, and 48 hours. The amount of adiponectin secreted was determined by Western blotting method.

[2] = test system: PTP1B; assay: PTP1B expression inhibitory effect in 3T3-L1 adipocytes, Western blotting; format: cell-based; conditions: for PTP1B expression inhibitory effect: in words, no time or concentration stated
Method: as §1
Teadenol A (10 μM) or DMSO (vehicle control) was added to the sufficiently differentiated 3T3-L1 adipocytes. After culture for 8, 24, 32, and 48 hours, the cells were collected, and the amount of PTP1B […] and the amount of α-tubulin were determined by Western blotting method.

[3] = Test of visceral fat and adiponectin functions (method not described); format: in vivo; conditions: in words

SMILES | adiponectin secretion promoting effect [1] | PTP1B expression inhibitory effect [2] | adiponectin [3] | visceral fat [3] | adiponectin secretion promoting activity ([1]; 10 μM, 3T3-L1 adipocytes, statistically significant difference after 24 and 48 hours) | PTP1B expression inhibitory activity ([2]; 10 μM, 3T3-L1 adipocytes, statistically significant difference after 32 hours)
C=C1C=C(C(=O)O)O[C@@H]2Cc3c(O)cc(O)cc3O[C@@H]12 [Teadenol B, teadenol B] | effective | effective | – | – | – | –
C=C1C=C(C(=O)O)O[C@@H]2Cc3c(O)cc(O)cc3O[C@H]12 [Teadenol A, teadenol A] | – | – | increasing adiponectin | decreasing visceral fat | effective | effective
C=C1C=C(C(=O)O)O[C@@H]2Cc3c(O)cc(O)cc3OC12 (some centres unmarked) [compound (1)] | confirmed to have | confirmed to have | – | – | – | –
